Source: ChEMBL document CHEMBL1139355, “Selectively targeting T- and B-cell lymphomas: a benzothiazole antagonist of alpha4beta1 integrin” (J Med Chem, 2009)

The compounds below were run against Integrin alpha-4/beta-1 (Homo sapiens, UniProt P05556+P13612) (assay: Inhibition of human integrin alpha-4-beta-1-mediated MOLT4 cell adhesion to biotin-conjugated CS-1 peptide).
Assay type: cell-based, MOLT-4

Integrin alpha-4/beta-1, sequence (P05556 whole entry): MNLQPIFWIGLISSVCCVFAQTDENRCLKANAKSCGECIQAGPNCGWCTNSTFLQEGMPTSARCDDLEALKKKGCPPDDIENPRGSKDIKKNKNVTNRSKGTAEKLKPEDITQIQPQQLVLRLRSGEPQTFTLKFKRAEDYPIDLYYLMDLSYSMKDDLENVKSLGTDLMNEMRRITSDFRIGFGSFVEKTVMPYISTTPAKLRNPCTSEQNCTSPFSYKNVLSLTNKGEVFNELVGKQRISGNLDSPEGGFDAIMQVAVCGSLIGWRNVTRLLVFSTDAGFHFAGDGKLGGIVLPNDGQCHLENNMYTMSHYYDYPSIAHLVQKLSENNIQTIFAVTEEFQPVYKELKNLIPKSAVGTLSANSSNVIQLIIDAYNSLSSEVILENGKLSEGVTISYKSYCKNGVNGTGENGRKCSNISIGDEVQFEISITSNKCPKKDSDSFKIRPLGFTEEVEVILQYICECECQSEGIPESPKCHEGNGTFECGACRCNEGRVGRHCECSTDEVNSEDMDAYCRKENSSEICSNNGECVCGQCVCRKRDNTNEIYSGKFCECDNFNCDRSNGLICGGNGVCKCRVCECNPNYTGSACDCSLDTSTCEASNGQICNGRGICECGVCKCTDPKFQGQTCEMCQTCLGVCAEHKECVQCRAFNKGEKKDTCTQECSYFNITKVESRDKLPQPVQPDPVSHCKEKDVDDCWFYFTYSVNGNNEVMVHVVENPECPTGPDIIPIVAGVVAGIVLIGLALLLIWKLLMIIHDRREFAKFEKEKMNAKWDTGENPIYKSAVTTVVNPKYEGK
Integrin alpha-4/beta-1, sequence (P13612 whole entry): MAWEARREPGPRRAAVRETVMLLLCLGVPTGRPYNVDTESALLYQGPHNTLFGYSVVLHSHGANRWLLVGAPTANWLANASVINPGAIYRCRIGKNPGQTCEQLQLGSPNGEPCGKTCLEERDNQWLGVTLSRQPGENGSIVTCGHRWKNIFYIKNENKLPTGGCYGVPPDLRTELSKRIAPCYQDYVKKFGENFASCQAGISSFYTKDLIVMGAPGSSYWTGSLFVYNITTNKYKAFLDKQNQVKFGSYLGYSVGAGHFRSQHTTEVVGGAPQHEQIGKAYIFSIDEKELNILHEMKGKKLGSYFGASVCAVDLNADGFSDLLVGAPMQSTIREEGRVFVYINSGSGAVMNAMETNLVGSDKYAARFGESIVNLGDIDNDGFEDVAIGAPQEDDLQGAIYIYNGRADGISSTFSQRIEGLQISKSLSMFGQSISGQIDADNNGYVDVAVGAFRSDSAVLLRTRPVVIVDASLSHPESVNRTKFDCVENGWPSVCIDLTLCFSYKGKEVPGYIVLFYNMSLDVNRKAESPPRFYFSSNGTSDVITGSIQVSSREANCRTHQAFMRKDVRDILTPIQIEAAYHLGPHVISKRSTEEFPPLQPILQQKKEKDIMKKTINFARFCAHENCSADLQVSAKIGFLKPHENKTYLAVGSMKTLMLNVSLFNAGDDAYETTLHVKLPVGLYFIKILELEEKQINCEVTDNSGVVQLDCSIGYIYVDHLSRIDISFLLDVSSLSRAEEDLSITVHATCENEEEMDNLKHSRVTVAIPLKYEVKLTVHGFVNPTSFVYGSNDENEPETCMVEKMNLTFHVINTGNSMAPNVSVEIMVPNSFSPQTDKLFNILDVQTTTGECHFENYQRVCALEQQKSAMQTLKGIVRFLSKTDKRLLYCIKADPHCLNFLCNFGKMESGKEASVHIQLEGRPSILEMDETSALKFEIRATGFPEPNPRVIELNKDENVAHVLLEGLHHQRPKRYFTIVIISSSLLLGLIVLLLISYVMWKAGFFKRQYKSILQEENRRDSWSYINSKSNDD

IC50 [nM] | SMILES
378 | NC(=O)C1(NC(=O)[C@@H](CCCC(=O)O)NC(=O)[C@@H](CCCCNC(=O)/C=C/c2cccnc2)NC(=O)CCc2ccc(Nc3nc4cc(Br)ccc4[nH]3)cc2)CCCCC1
0.305 | NC(=O)C1(NC(=O)[C@H](CCCC(=O)O)NC(=O)[C@H](CCCCNC(=O)/C=C/c2cccnc2)NC(=O)Cc2ccc(Nc3nc4ccccc4[nH]3)cc2)CCCCC1
0.0525 | NC(=O)C1(NC(=O)[C@@H](CCCC(=O)O)NC(=O)[C@@H](CCCCNC(=O)/C=C/c2cccnc2)NC(=O)Cc2ccc(Nc3nc4ccccc4s3)cc2)CCCCC1
346 | NC(=O)C1(NC(=O)[C@@H](CCCC(=O)O)NC(=O)[C@@H](CCCCNC(=O)/C=C/c2cccnc2)NC(=O)c2ccc(Nc3nc4ccccc4s3)cc2)CCCCC1
